We go through 2 compounds from patent US20230150951A1, “2,5- OR 2,6-DISUBSTITUTED HYDROQUINONE DERIVATIVES WITH AT LEAST ONE CARBOXY, SULFO OR AMIDO GROUP USEFUL AS MEDICAMENTS” (OM PHARMA SA, priority 2020, published 2023).

Data set [1] has as its system human primary cells. The experiment in a line: BioMap Plus phenotypic profiling in human primary cell-based systems. Particulars: 30, 10, 3.3, 1.1 μM. How it is done: A series of in vitro assays was performed using human primary cell-based assays modeling complex tissue and disease biology of organs (vasculature, immune system, skin, lung) and general tissue biology for phenotypic profiling of compounds in conditions that preserve crosstalk and feedback mechanisms relevant to in vivo outcomes.

Data set [2] concerns the target T1, COX2 (cycloxygenase-2) (Homo sapiens, UniProt P35354).
T1 sequence (P35354 18-604): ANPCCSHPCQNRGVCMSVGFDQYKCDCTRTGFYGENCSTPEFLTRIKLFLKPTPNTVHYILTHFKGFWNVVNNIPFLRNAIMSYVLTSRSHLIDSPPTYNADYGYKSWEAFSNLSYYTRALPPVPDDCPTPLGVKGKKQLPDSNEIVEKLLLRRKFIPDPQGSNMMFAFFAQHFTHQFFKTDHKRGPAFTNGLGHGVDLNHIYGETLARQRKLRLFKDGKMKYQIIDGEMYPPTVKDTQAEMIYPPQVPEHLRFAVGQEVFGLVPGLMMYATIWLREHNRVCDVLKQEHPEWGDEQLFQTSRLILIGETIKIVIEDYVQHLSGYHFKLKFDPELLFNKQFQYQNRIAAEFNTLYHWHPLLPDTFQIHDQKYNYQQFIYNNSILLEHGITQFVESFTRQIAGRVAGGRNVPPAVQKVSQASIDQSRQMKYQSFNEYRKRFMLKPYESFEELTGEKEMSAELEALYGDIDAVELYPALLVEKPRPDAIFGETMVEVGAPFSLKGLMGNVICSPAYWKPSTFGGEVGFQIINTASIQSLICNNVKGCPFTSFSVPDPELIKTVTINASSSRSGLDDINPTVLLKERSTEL
Description: Cyclooxygenase enzyme inhibition. Type of data set: biochemical.

Data set [3] deals with ARPE-19 cells. Description: ROS and cytokine/VEGF mRNA production by ARPE-19 monolayer cells in non-diabetic and diabetic milieu. Format: cell-based, human. Particulars: ARPE19 monolayer; for ROS: ROS % to 25 mM D-Glucose; for IL-1β R.Q. mRNA / IL-6 R.Q. mRNA / IL-18 R.Q. mRNA / TNFα R.Q. mRNA / VEGF R.Q. mRNA: relative change vs 25 mM D-Gluc. How it is done: (§1) Outer Blood Retinal Barrier conditions: human retinal pigment epithelial cells (RPE) cultures ARPE-19, a spontaneously immortalised human RPE cell line were obtained from American Type Culture Collection (Manassas, Va., USA). ARPE-19 cells and they were cultured in euglycaemic conditions (D-glucose (D-Glc), 5.5 mmol/L) and hyperglycaemic conditions (D-glucose, 25 mmol/L) for 18 days at 37° C. under 5% (vol./vol.) CO2 in medium (DMEM/F12) supplemented with 10% (vol./vol.) FBS (Hyclone; Thermo Fisher Scientific, UT, USA) and 1% (vol./vol.) penicillin/streptomycin (Hyclone; Thermo Fisher Scientific). ARPE-19 cells from passage 20 were used and the medium changed every 3-4 days. For permeability studies, ARPE-19 cells were seeded at 400,000 cells/ml (80,000 RPE cells/well) in 0.33 cm^2 HTS-Transwells (Costar; Corning, N.Y., USA). For real-time PCR, western blot analysis and immunofluorescence cells are seeded at 20,000 cells/ml.
(§2) Experimental conditions and treatments: apart from the euglycemic condition, eighteen different conditions were tested in cells cultured under 25 mmol/L D-glucose:
• Proinflammatory cytokines were evaluated in ARPE-19 cells by RT-PCR and mRNA for IL-6, TNF-α, IL-1β, IL-18, VEGF, IL-10, FGF were measured using the double delta CT method 2-ΔΔCT with Cts values for the gene of interest and the endogenous human B-actin to obtain ΔCT; mRNA values were expressed as relative change with respect to the condition 25 mM D-Gluc. (ref: Livak K J, Analysis of Relative Gene Expression Data Using Real-Time Quantitative PCR and the 2-ΔΔCT Method, Methods, 2001, 25(4), 402-408, doi 10.1006/meth.2001.1262) • ROS production was evaluated using Cell Biolabs' OxiSelect™ Intracellular ROS Assay (Green Fluorescence) (Bionova, Madrid, Spain). The assay employs the cell-permeable fluorogenic probe 2′, 7′-Dichlorodihydrofluorescin diacetate (DCFH-DA), oxidized to highly fluorescent 2′, 7′-Dichlorodihydrofluorescein (DCF) by cellular ROS. • Endothelin-1, PDGF and VCAM-1 expression was analyzed in HREC monolayers by immunohistochemical analysis and by RT-PCR. • TJ expression (ZO) is analyzed in ARPE-19 and HREC monolayers by immunohistochemical analysis.

The test system of data set [4] is ARPE-19 cells. The experiment in a line: Outer blood retinal barrier: ARPE-19 monolayer permeability to FITC-dextran. Format: cell-based, human. The following applies: for p < 0.05 (ARPE19 permeability versus diabetic milieu): IL-β, after 90 min.
Source text: The mechanisms of actions involved in the anti-permeability effect of the tested treatments were explored by assessing permeability to fluorescent dextran and proinflammatory cytokines production using their mRNA expression levels by RT-PCR.
as §1, §2
Condition 2) Cells are treated with diabetic milieu 25 mM D-Glucose+vehicle (days 15, 16 and 17 at one application/day) in order to evaluate their effect in preventing the cell damage provoked by the diabetic milieu.
Condition 9) Cells were treated with 25 mM D-Glucose and bevacizumab (0.2 mg/ml) for 72 h (days 15, 16 and 17 at one application/day) to evaluate their potential cytotoxic effects.
Condition 10)=Diabetic milieu; cells were treated with 25 mM D-Glucose+[…] (10 ng/ml)+TNF-α (25 ng/ml)+VEGF (25 ng/ml), for 48 h (days 16 and 17 at one application/day) in order to provoke the disruption of the monolayer.
Condition 17) Cells are treated with diabetic milieu (25 mM D-Glucose+IL-1β (10 ng/ml)+TNF-α (25 ng/ml)+VEGF (25 ng/ml))+bevacizumab (0.2 mg/mL) (days 15, 16 and 17 at one application/day) in order to evaluate their effect in preventing the cell damage provoked by the diabetic milieu.
Measurement of ARPE-19 permeability: The permeability of RPE cells was determined at 18 days by measuring the apical-to basolateral movements of FITC-dextran (40 kDa) (Sigma, St Louis, […]., USA) following a procedure previously reported by Villarroel et al. Exp Eye Res, 2009, 89, 913-920.

The mark [5] stands for this setting: 25 mM D-Gluc, compound 25 μg/mL.
Where [6] appears, read: 25 mM D-Gluc, compound 50 μg/mL.
[7] abbreviates: diabetic milieu (25 mM D-Gluc + VEGF, TNF-α, IL-1β), compound 25 μg/mL.
Where [8] appears, read: diabetic milieu (25 mM D-Gluc + VEGF, TNF-α, IL-1β), compound 50 μg/mL.

For `O=C(O)c1cc(NC(=O)c2cc(O)c(C(=O)Nc3ccc(O)c(C(=O)O)c3)cc2O)ccc1O` [Ic-007a, 5-(4-(3-carboxy-4-hydroxyphenylaminocarbonyl)-2,5-dihydroxybenzamido)-2-hydroxy benzoic acid], in data set [1], the “Antiproliferative effects on human primary cells” value was “antiproliferative to human primary T cells (30 μM) and fibroblasts (30 μM, 10 μM, 3.3 μM, 1.1 μM)”; the “Cytotoxicity in BioMap Plus” value is recorded as “not cytotoxic”; the Immunomodulatory activities entry is reported as “decreased CD40, M-CSF”; the Inflammation-related activities result was “decreased VCAM-1, sTNFα, MIP-1α, I-TAC, MIG; increased IL-8; modulated IP-10”. In data set [1], the “Number of annotated readouts” value is given as 20 and the Tissue remodeling activities entry is given as “decreased Collagen I, Collagen IV, TIMP-1, tPA, Collagen III, PAI-1, uPAR, bFGF”. Further, the “Inhibition of COX2” value in data set [2] is “partially inhibition”. In data set [3] (setting [5]), the ROS is listed as 32 ± 15%, the “IL-1β R.Q. mRNA” value is on record as 0.12 ± 0.01 R.Q, the “IL-6 R.Q. mRNA” value is 0.52 ± 0.49 R.Q and the “IL-18 R.Q. mRNA” value is on record as 0.45 ± 0.18 R.Q. In data set [3] (setting [5]), the “TNFα R.Q. mRNA” value was determined as 0.27 ± 0.07 R.Q and the “VEGF R.Q. mRNA” value is 0.09 ± 0.02 R.Q. Also, in data set [3] (setting [6]), the ROS is reported as 26 ± 4.6%, the “IL-1β R.Q. mRNA” value was 0.15 ± 0.03 R.Q, the “IL-6 R.Q. mRNA” value worked out at 0.20 ± 0.07 R.Q and the “IL-18 R.Q. mRNA” value was 0.07 ± 0.01 R.Q. For the same compound, in data set [3] (setting [6]), the “TNFα R.Q. mRNA” value is 0.59 ± 0.33 R.Q and the “VEGF R.Q. mRNA” value was 0.12 ± 0.03 R.Q. Also, in data set [3] (setting [7]), the ROS stood at 33 ± 4.8 %, the “IL-1β R.Q. mRNA” value came out at 12.21 ± 1.46 R.Q, the “IL-6 R.Q. mRNA” value amounted to 0.52 ± 0.49 R.Q and the “IL-18 R.Q. mRNA” value was 0.02 ± 0.00 R.Q. Also, in data set [3] (setting [7]), the “TNFα R.Q. mRNA” value came to 11.26 ± 0.96 R.Q and the “VEGF R.Q. mRNA” value is listed as 0.06 ± 0.02 R.Q. In addition, in data set [3] (setting [8]), the ROS came to 27 ± 13 %, the “IL-1β R.Q. mRNA” value is on record as 10.66 ± 3.01 R.Q, the “IL-6 R.Q. mRNA” value came to 3.28 ± 1.46 R.Q and the “IL-18 R.Q. mRNA” value is given as 0.02 ± 0.00 R.Q. For the same compound, in data set [3] (setting [8]), the “TNFα R.Q. mRNA” value was determined as 5.22 ± 3.96 R.Q and the “VEGF R.Q. mRNA” value is on record as 0.17 ± 0.05 R.Q. Also, the “% permeability ARPE19” value in data set [4] (No 3-5: 25 mM D-Gluc + compound 25 μg/mL) turned out to be 75.2 ± 11.1%. Further, the “% permeability ARPE19” value in data set [4] (No 6-8: 25 mM D-Gluc + compound 50 μg/mL + VEGF, TNF-α, (so in the source)) was found to be 107.3 ± 43.9%. For the same compound, in data set [4] (No 11-13: 25 mM D-Gluc + compound 25 μg/mL + VEGF, TNF-α, (diabetic milieu)), the “% permeability ARPE19” value is 103.7 ± 15.7%. Besides, the “p < 0.05 (ARPE19 permeability versus diabetic milieu)” value in data set [4] (No 11-13: compound 25 μg/mL + VEGF, TNF-α) is “* (* p < 0.05 for FITC dextran leakage measured after 90 min in [ng/mL/cm^2] in comparison with diabetic milieu (25 mM D-Gluose + VEGF, TNF-α, IL-β))”. Moreover, the “% permeability ARPE19” value in data set [4] (No 14-16: 25 mM D-Gluc + compound 50 μg/mL + VEGF, TNF-α, (diabetic milieu)) is on record as 127.1 ± 13.5%. For the same compound, the “p < 0.05 (ARPE19 permeability versus diabetic milieu)” value in data set [4] (No 14-16: compound 50 μg/mL + VEGF, TNF-α) is “* (* p < 0.05 for FITC dextran leakage measured after 90 min in [ng/mL/cm^2] in comparison with diabetic milieu (25 mM D-Gluose + VEGF, TNF-α, IL-β))”.
With `O=C(O)c1cc(O)c(CN(Cc2cc(O)c(C(=O)O)cc2O)Cc2cc(O)c(C(=O)O)cc2O)cc1O` [IIIc-061a, Tris(4-carboxy-2,5-dihydroxyphenylmethyl)amine], in data set [1], the “Antiproliferative effects on human primary cells” value is listed as “did not have any antiproliferative effects”; the “Cytotoxicity in BioMap Plus” value is listed as “not cytotoxic”; the Immunomodulatory activities entry is given as “decreased sIL-17A”; the Inflammation-related activities result is listed as “decreased I-TAC, MIG”. In data set [1], the “Number of annotated readouts” value is given as “six” and the Tissue remodeling activities result is on record as “decreased Collagen I, Collagen III, PAI-1”. Besides, the “Inhibition of COX2” value in data set [2] is listed as “partially inhibition”.
